“And” between values parts separate entries of the source, which are not always exact repeats. Identical values can stand only once.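 Where inhibition never reached the appropriate level, the endpoint shown equals the highest concentration tested. Otherwise, values were interpolated linearly from a five-concentration, 48-hour dose response in 96-well plates. The concentration for 50% growth inhibition is given as GI50. TGI: total growth inhibition.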

The first assay has as its system 786-0 renal. The assay can be described thus: growth of human tumour cells (NCI), 48 h.
Turning to `CCSCC1CC(O)(c2ccccc2)C(c2ccccc2)C(c2ccc(F)cc2)O1` (centres undefined), the GI50 is 2.19 µM and the TGI was 5.08 µM.

Take `CCO/C=C1\SC(=S)N(c2ccc(OCC)cc2)C1=O`: the TGI is > 100 µM.

Regarding `Nc1nc(=S)c2ncn(C3OC(COP(=O)(O)O)C(O)C3O)c2[nH]1` (centres undefined), the GI50 was 2.53 µM and the TGI is > 100 µM.

With `NC(N)=NCCCC(NCc1c2ccccc2nc2ccccc12)C(=O)O` (centres undefined), the TGI was > 100 µM.

With `CC(=O)O[C@H]1CC2C(C3CC[C@H](C(C)CCC(=O)O)[C@]31C)[C@H](OC(C)=O)C[C@@H]1CC3(CC[C@]21C)OOC1(CCC(C)CC1)OO3` (some centres undefined), the GI50 was 7.66 µM and 1.81 µM; the TGI was 20.3 µM and 3.81 µM.

Regarding `Cc1cnc(C(=O)NNc2nc3sc4c(c3c(=O)[nH]2)C(C)CCC4)cn1` (centres undefined), the GI50 was 1.56 µM and the TGI stood at 13.5 µM.

On to `O=C1c2ccccc2C(=O)c2c(NC3CCCCC3)ccc(Nc3ccc(S(=O)(=O)O)cc3)c21`, for which the TGI is > 100 µM.

`CN(C)c1ccc(-c2cc(-c3ccc(Nc4nc(Nc5ccc(Cl)cc5)nc(Nc5ccc(Cl)cc5)n4)cc3)nc(N)c2C#N)cc1`: the GI50 is 16.7 µM and the TGI is > 100 µM.

Regarding `COCCN(Cc1ccc(F)cc1)c1ccc(CO)c(Cl)c1`, the GI50 was 23.1 µM and the TGI is > 82.3 µM.

On to `O=C(COc1ccc(/C=C2\Oc3ccccc3C2=O)cc1)Nc1nc2ccccc2s1`, for which the GI50 is 5.26 µM and the TGI was 53.3 µM.

`CC12OC(=O)C(C#N)C1(C)C1C(=O)CCCC12` (centres undefined): the TGI is > 100 µM.

For `CCc1cccc(CC)c1NC(=O)/C(Cl)=C(/Cl)C(=O)O`, the TGI was > 56.2 µM.

Take `O=[N+]([O-])c1ccc(-c2ccc(C3=Nn4c(CNc5ccccc5Cl)nnc4SC3)o2)cc1`: the TGI is > 100 µM.

Consider `Cc1cc(Br)c(NC(=O)c2c(-c3c(Cl)cccc3Cl)noc2C)c(Br)c1`, for which the GI50 is > 100 µM and the TGI was > 100 µM.

Consider `OCC1CC[N-]CC1.OCC1CC[N-]CC1.[Cl][Pt+2]([Cl])([Cl])[Cl]`, for which the GI50 was 34.9 µM.

For the molecule `CC(=O)OCC(=O)[C@@]1(O)CC[C@H]2[C@@H]3C[C@H](C)C4=CC(=O)C=C[C@]4(C)[C@@]3(F)[C@@H](O)C[C@@]21C`, the TGI was > 100 µM.

For the molecule `OCCCCC#Cc1ccccc1C#Cc1cccc(C(F)(F)F)c1`, the GI50 is 11.1 µM and the TGI is 34 µM.

As for `Nc1nc(=S)c2c(ncn2CCO)[nH]1`, the TGI was > 100 µM.

Regarding `CC(C)Cc1ccc(C(C)/C=C2\CCC(CN(C)C)C2=O)cc1` (centres undefined), the TGI amounted to 8.13 µM.

The subject of another assay is ACHN renal. Briefly: growth of human tumour cells (NCI), 48 h.
As for `CCSCC1CC(O)(c2ccccc2)C(c2ccccc2)C(c2ccc(F)cc2)O1` (centres undefined), the GI50 was 2.22 µM and the TGI was 5.54 µM.

Consider `CCO/C=C1\SC(=S)N(c2ccc(OCC)cc2)C1=O`, for which the TGI was > 100 µM.

With `Nc1nc(=S)c2ncn(C3OC(COP(=O)(O)O)C(O)C3O)c2[nH]1` (centres undefined), the GI50 was 1.99 µM and the TGI was > 100 µM.

For `NC(N)=NCCCC(NCc1c2ccccc2nc2ccccc12)C(=O)O` (centres undefined), the TGI is > 100 µM.

Consider `CC(=O)O[C@H]1CC2C(C3CC[C@H](C(C)CCC(=O)O)[C@]31C)[C@H](OC(C)=O)C[C@@H]1CC3(CC[C@]21C)OOC1(CCC(C)CC1)OO3` (some centres undefined), for which the TGI was 15.8 µM and 9.72 µM.

`Cc1cnc(C(=O)NNc2nc3sc4c(c3c(=O)[nH]2)C(C)CCC4)cn1` (centres undefined): the GI50 was 0.55 µM and the TGI was found to be 11 µM.

Turning to `O=C1c2ccccc2C(=O)c2c(NC3CCCCC3)ccc(Nc3ccc(S(=O)(=O)O)cc3)c21`, the TGI was > 100 µM.

In the case of `CN(C)c1ccc(-c2cc(-c3ccc(Nc4nc(Nc5ccc(Cl)cc5)nc(Nc5ccc(Cl)cc5)n4)cc3)nc(N)c2C#N)cc1`, the GI50 was 13.1 µM and the TGI is > 100 µM.

As to `COCCN(Cc1ccc(F)cc1)c1ccc(CO)c(Cl)c1`, the GI50 was 39.9 µM and the TGI was > 100 µM.

As to `O=C(COc1ccc(/C=C2\Oc3ccccc3C2=O)cc1)Nc1nc2ccccc2s1`, the GI50 was 28.9 µM and the TGI is > 100 µM.

Consider `CC12OC(=O)C(C#N)C1(C)C1C(=O)CCCC12` (centres undefined), for which the TGI is > 100 µM.

In the case of `CCc1cccc(CC)c1NC(=O)/C(Cl)=C(/Cl)C(=O)O`, the TGI came to 47.6 µM.

With `O=[N+]([O-])c1ccc(-c2ccc(C3=Nn4c(CNc5ccccc5Cl)nnc4SC3)o2)cc1`, the TGI was > 100 µM.

For `Cc1cc(Br)c(NC(=O)c2c(-c3c(Cl)cccc3Cl)noc2C)c(Br)c1`, the GI50 is > 100 µM and the TGI was > 100 µM.

With `OCC1CC[N-]CC1.OCC1CC[N-]CC1.[Cl][Pt+2]([Cl])([Cl])[Cl]`, the GI50 is 38.8 µM.

On to `CC(=O)OCC(=O)[C@@]1(O)CC[C@H]2[C@@H]3C[C@H](C)C4=CC(=O)C=C[C@]4(C)[C@@]3(F)[C@@H](O)C[C@@]21C`, for which the TGI was > 100 µM.

In the case of `OCCCCC#Cc1ccccc1C#Cc1cccc(C(F)(F)F)c1`, the GI50 was 18.3 µM and the TGI amounted to 32.4 µM.

`Nc1nc(=S)c2c(ncn2CCO)[nH]1`: the TGI is > 100 µM.

`CC(C)Cc1ccc(C(C)/C=C2\CCC(CN(C)C)C2=O)cc1` (centres undefined) came in with a TGI of 38.1 µM.

The next assay concerns HCT-116 colon. Briefly: growth of human tumour cells (NCI), 48 h.
Consider `CCSCC1CC(O)(c2ccccc2)C(c2ccccc2)C(c2ccc(F)cc2)O1` (centres undefined), for which the GI50 is 1.47 µM and the TGI was 3.22 µM.

With `CCO/C=C1\SC(=S)N(c2ccc(OCC)cc2)C1=O`, the TGI was > 100 µM.

On to `Nc1nc(=S)c2ncn(C3OC(COP(=O)(O)O)C(O)C3O)c2[nH]1` (centres undefined), for which the GI50 is 0.5 µM and the TGI is > 100 µM.

As for `NC(N)=NCCCC(NCc1c2ccccc2nc2ccccc12)C(=O)O` (centres undefined), the TGI was > 100 µM.

Regarding `CC(=O)O[C@H]1CC2C(C3CC[C@H](C(C)CCC(=O)O)[C@]31C)[C@H](OC(C)=O)C[C@@H]1CC3(CC[C@]21C)OOC1(CCC(C)CC1)OO3` (some centres undefined), the TGI is 13.9 µM and 5.9 µM.

As for `Cc1cnc(C(=O)NNc2nc3sc4c(c3c(=O)[nH]2)C(C)CCC4)cn1` (centres undefined), the GI50 was 0.672 µM and the TGI stood at 17 µM.

As to `O=C1c2ccccc2C(=O)c2c(NC3CCCCC3)ccc(Nc3ccc(S(=O)(=O)O)cc3)c21`, the TGI is > 100 µM.

Turning to `CN(C)c1ccc(-c2cc(-c3ccc(Nc4nc(Nc5ccc(Cl)cc5)nc(Nc5ccc(Cl)cc5)n4)cc3)nc(N)c2C#N)cc1`, the GI50 was 4.99 µM and the TGI was > 100 µM.

On to `COCCN(Cc1ccc(F)cc1)c1ccc(CO)c(Cl)c1`, for which the GI50 is 0.821 µM and the TGI is > 56.5 µM.

(Values after PubChem BioAssay (NCI).)
